From US20080096831A1, “Stabilized azithromycin composition” (priority 2003, published 2008)

Experiment: Impurity analysis of azithromycin monohydrate granules by HPLC after storage at 50° C. for 8 days
Assay type: physicochemical
Settings: results of Table 1
Method: Wet granules prepared according to the procedure set forth in Example 1 were placed on a tray which was placed in an oven at 55° C. Six samples were taken at different times and the moisture content was determined using an OHAUS Balance. The water/moisture content of each sample varied from 3.3-12.5 wt %, based on the total weight of the granules. The samples were stored in glass bottles, sealed, and placed in an oven at 50° C. After 8 days, the samples were removed from the oven and the amount and type of impurities was determined by high performance liquid chromatography (HPLC).
Sample solutions were freshly prepared from azithromycin monohydrate and injected on column. The percentages of impurities was calculated from the integrator output. The performance of the HPLC system was tested using standardized solutions of azithromycin monohydrate.
Three impurities were identified and measured as a percentage of the total azithromycin monohydrate in each sample.

water content range in which chemical stability is good: 5.5-12.4 wt %
SMILES: CC[C@H]1OC(=O)[C@H](C)[C@@H](O[C@H]2C[C@@](C)(OC)[C@@H](O)[C@H](C)O2)[C@H](C)[C@@H](O[C@@H]2O[C@H](C)C[C@H](N(C)C)[C@H]2O)[C@](C)(O)C[C@@H](C)CN(C)[C@H](C)[C@@H](O)[C@]1(C)O (relative stereo) [azithromycin monohydrate, [2R-(2R*,3S*,4R*,5R*,8R*, 10R*, 11R*, 12S*, 13S*, 14R*)]-13-[(2,6-dideoxy-3-C-methyl-3-β-methyl-α-L-ribo-hexopyranosyl)oxy]-2-ethyl-3,4,10-trihydroxy-3,5,6,8,10,12,14-heptamethyl-11-[[3,4,6-trideoxy-3-(dimethylamino)-β-D-xylo-hexopyranosyl]oxy]-1-oxa-6-azacyclopentadecan-15-one monohydrate]
